The values below are quoted from earlier work in US20090048316A1, “Pharmaceutical composition comprising candesartan cilexetil” (priority 2007, published 2009).

The structures appear in SMILES notation. Where two headings read alike, the source gives them in different places.

Regarding `CCOc1nc2cccc(C(=O)OC(C)OC(=O)OC3CCCCC3)c2n1Cc1ccc(-c2ccccc2-c2nnn[nH]2)cc1` (racemic) [Candesartan cilexetil, (±)-1-[[(cyclohexyloxy)carbonyl]oxy]ethyl-2-ethoxy-1-[[2′-(1H-tetrazol-5-yl)[1,1′biphenyl]-4-yl]methyl]-1H-benzimidazole-7-carboxylate], the solubility result runs as follows: (in methanol) “practically insoluble”; (in water) “practically insoluble”.
